How the values were obtained:
Translocator protein [1] = biological target: T1, Translocator protein (Rattus norvegicus, UniProt P16257); experiment: Displacement of [3H]-Ro54864 from TSPO receptor in rat heart microsomes incubated for 45 mins by scintillation method; set-up: species or system Microsome
Translocator protein [2] = biological target: T1, Translocator protein; experiment: Displacement of [3H]-PK11195 from TSPO receptor in rat heart microsomes incubated for 15 mins by scintillation method; set-up: species or system Microsome
[3] = Binding affinity to CBR (unknown origin); set-up: species or system Homo sapiens
Translocator protein [4] = biological target: T2, Translocator protein (Homo sapiens, UniProt P30536); experiment: Inhibition of TSPO (unknown origin) in mouse MA-10 cells assessed as increase in steroid steroidogenesis
T2 sequence (P30536 whole entry): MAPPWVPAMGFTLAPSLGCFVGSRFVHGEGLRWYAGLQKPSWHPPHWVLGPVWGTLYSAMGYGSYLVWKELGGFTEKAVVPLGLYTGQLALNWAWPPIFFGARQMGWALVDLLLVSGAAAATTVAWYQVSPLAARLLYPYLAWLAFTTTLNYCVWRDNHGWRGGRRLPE

[5] = Lipophilicity, logD of the compound; assay type: physicochemical; conditions: octanol/water
[6] = Displacement of [3H]-Ro51788 from CBR receptor in rat brain microsomes incubated for 60 mins by scintillation method; set-up: species or system Microsome
Translocator protein [7] = biological target: T1, Translocator protein; experiment: Binding affinity to TSPO in Sprague-Dawley rat brain; assay type: tissue-based
Translocator protein [8] = biological target: T1, Translocator protein; experiment: Displacement of [3H]-flunitrazepam from TSPO receptor in Wistar rat brain without cerebellum incubated for 90 mins by liquid scintillation counter analysis; assay type: tissue-based
[9] = Selectivity ratio of Ki for CBR (unknown origin) to Ki for TSPO receptor in Wistar rat brain
[10] = Lipophilicity, logD of the compound in 1-octanol and phosphate buffer in pH 7.4 incubated for 3 mins; assay type: physicochemical; conditions: 1-octanol/phosphate buffer
Translocator protein [11] = biological target: T2, Translocator protein; experiment: Displacement of [3H]-PK11195 from TSPO receptor in human Leucocyte incubated for 30 mins by beta-counter analysis; assay type: cell-based
Translocator protein [12] = biological target: T2, Translocator protein; experiment: Inhibition of TSPO receptor (unknown origin)
[13] = Stability of the compound assessed as intact compound level measured after 24 hrs by iTLC-SG analysis; assay type: physicochemical; conditions: read-out: Stability
[14] = Stability of the compound in human serum assessed as intact compound level measured after 24 hrs by iTLC-SG analysis; assay type: ADME, cell-free; conditions: read-out: Stability
Translocator protein [15] = biological target: T2, Translocator protein; experiment: Binding affinity to TSPO (unknown origin) relative to control; conditions: tested as the 11C-labelled form
[16] = Displacement of [3H]flunitrazepam from CBR receptor in rat brain cerebral cortex by liquid scintillation spectrometer method; assay type: tissue-based
[17] = Lipophilicity, logD of the compound in 1-octanol and phosphate buffer in pH 7.4 incubated for 3 mins by shake flask method; assay type: physicochemical; conditions: 1-octanol/phosphate buffer
Translocator protein [18] = biological target: T1, Translocator protein; experiment: Displacement of [3H]-PK11195 from TSPO receptor in Sprague-Dawley rat brain incubated for 30 mins by […] analysis; assay type: tissue-based

T1 sequence (P16257 whole entry, looked up): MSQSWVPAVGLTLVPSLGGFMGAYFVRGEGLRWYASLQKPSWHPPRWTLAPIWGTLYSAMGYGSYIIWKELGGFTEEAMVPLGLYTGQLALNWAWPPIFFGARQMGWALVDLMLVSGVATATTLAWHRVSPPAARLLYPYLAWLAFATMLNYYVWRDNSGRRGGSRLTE

With `Oc1nc2ccccc2c2nc(-c3ccccc3)nn12` the IC50 (Translocator protein [1]) was 15 nM and the IC50 (Translocator protein [2]) was 9800 nM.

With `CCC(C)N(C)C(=O)c1cc2ccccc2c(-c2ccccc2Cl)n1` (configuration not stated) [PK-11195] the Ki [3] was > 100000 nM.

In the case of `CN1C(=O)CN=C(c2ccccc2F)c2cc([N+](=O)[O-])ccc21` [FLUNITRAZEPAM], the Ki [3] is reported as 5.11 nM.

For `CCCN(CCC)C(=O)Cc1c(-c2ccc(OCC(=O)O)cc2)nc2c(Cl)cc(Cl)cn12`, the EC50 (Translocator protein [4]) was 39000 nM.

With `CCCN(CCC)C(=O)Cc1c(-c2ccc(Cl)cc2)nc2c(Cl)cc(Cl)cn12` [ALPDEM] the EC50 (Translocator protein [4]) was 337 nM.

Work on `COc1ccc(-c2ccc3oc(=O)n(CC(=O)N(C)c4ccccc4)c3c2)cc1` yielded a logD [5] of 3.5.

In the case of `CCCN(CCC)C(=O)Cn1c(=O)n2cc(-c3ccccc3)nc2c2ccccc21`, the IC50 (Translocator protein [1]) is reported as 12 nM, the IC50 [6] is reported as > 10000 nM and the IC50 (Translocator protein [2]) is reported as 11 nM.

With `CCN(CC)C(=O)Cn1c(=O)n2nc(-c3ccccc3)nc2c2ccccc21` the IC50 (Translocator protein [2]) was 1700 nM.

In the case of `CN(C(=O)Cn1c(=O)oc2ccc(-c3cccc([N+](=O)[O-])c3)cc21)c1ccccc1O[11CH3]`, the logD [5] is reported as 2.08 and the Ki (Translocator protein [7]) is reported as 4.9 nM.

Work on `CCCN(CCC)C(=O)Cc1c(-c2ccc(O)cc2)nc2ccc(Cl)cn12` yielded a Ki (Translocator protein [8]) of 22.2 nM, an EC50 (Translocator protein [4]) of 6990 nM and a Ki [3] of 1.05 nM. It also gave a Ratio Ki [9] of 21.1.

`CC(=O)N(Cc1ccccc1O[11CH3])c1cnccc1Oc1ccccc1` gave a logD at 0.05 h [10] of 2.82 and an IC50 (Translocator protein [11]) of 8.07 nM.

`CCCN(CCC)C(=O)Cc1c(-c2ccc(Cl)cc2)nc2c(NCC(=O)O)cccn12` showed an EC50 (Translocator protein [4]) of 21200 nM.

`CC(=O)N(C)c1ccccc1Oc1ccccc1` gave an IC50 (Translocator protein [12]) of 6.7 nM.

For `COC(=O)C(Cc1c[nH]c2ccccc12)NC(=O)Cn1c(=O)oc2ccc(Br)cc21` (configuration not stated), the remaining at 24 h [13] was > 94% and the remaining at 24 h [14] was > 91%.

With `CCN(CC)C(=O)Cn1c(=O)n2cc(-c3ccccc3)nc2c2ccccc21` the IC50 (Translocator protein [1]) was 80 nM, the IC50 [6] was > 10000 nM and the IC50 (Translocator protein [2]) was 400 nM.

For `CCN(CC)C(=O)Cn1c(=O)n2cc(-c3ccc(OC)c(OC)c3)nc2c2ccccc21`, the IC50 (Translocator protein [1]) was 500 nM, the IC50 [6] was > 10000 nM and the IC50 (Translocator protein [2]) was 150 nM.

For `CCN(CC)C(=O)Cn1c(=O)n2c(C)c(-c3ccccc3)nc2c2ccccc21`, the IC50 (Translocator protein [1]) was 9 nM, the IC50 [6] was > 10000 nM and the IC50 (Translocator protein [2]) was 29 nM.

For `CCCN(CCC)C(=O)Cc1c(-c2ccc(OC)cc2)nc2c(Cl)cc(Cl)cn12`, the EC50 (Translocator protein [4]) was 571 nM.

For `COc1ccc(OC)c(CN(C(C)=O)c2cc(F)ccc2Oc2ccccc2)c1`, the Activity (Translocator protein [15]) was 80%, the IC50 [16] was > 1000 nM and the IC50 (Translocator protein [12]) was 0.28 nM.

Compound `CC(=O)N(Cc1ccccc1OC[18F])c1cnccc1Oc1ccccc1` has a logD at 0.05 h [10] of 2.85.

With `CN(C(=O)Cn1c(=O)oc2ccc(-c3ccc(OCC[18F])cc3)cc21)c1ccccc1` the logD at 0.05 h [17] was 3.43 and the Ki (Translocator protein [18]) was 6.6 nM.

For `CC(=O)N(Cc1ccccc1OC(C)C)c1ccc(Cl)cc1Oc1ccccc1`, the IC50 [16] was > 1000 nM.

In the case of `CCCN(CCC)C(=O)Cc1c(-c2ccc(OC)cc2)nc2ccc(Cl)cn12`, the Ki (Translocator protein [8]) is reported as 0.5 nM, the EC50 (Translocator protein [4]) is reported as 15900 nM and the Ki [3] is reported as 105 nM. It also gave a Ratio Ki [9] of 210.

`CCCN(CCC)C(=O)Cc1c(-c2ccc(Cl)cc2)nc2ccc(Cl)cn12` [ALPIDEM] showed a Ki (Translocator protein [8]) of 7.9 nM, a Ki [3] of 1 nM and a Ratio Ki [9] of 3.29.

— ChEMBL document CHEMBL5104089, “An update into the medicinal chemistry of translocator protein (TSPO) ligands” (Eur J Med Chem, 2021)
